# Assay results from patent US20110105623A1 (Biogenic Innovations, LLC, priority 2009, published 2011).
# Values joined by “and” are separate entries in the source; they are usually repeats but may differ in a detail not shown here. Equal entries are not always repeated. “Also recorded” adds a separate entry of the source.
# What was measured:
# [1] = system: ATCC strain 8739 Escherichia coli; experiment: Bromcresol Purple color change with MSM; type: cell-based
# Method: To investigate whether MSM functions as a carrier/transporter, the ability of MSM to transport Bromcresol into the E. coli was evaluated. Bromcresol Purple is an indicator dye that turns yellow in the presence of E. coli bacteria. It is non-toxic to the organism. […] All concentrations were plated out to 10^−7 dilutions to ascertain the log reduction.
# Flake OptiMSM was weighed out using a certified Mettler Toledo AG245 balance SN: 1115210833 and aliquoted for each concentration. […] Tubes were cooled to room temperature which was approximately 20° C. All tubes were then spiked with the same dilution of Escherichia coli that gave a level of colony forming units at 6.0×10^6/mL (6.8). The tubes were then incubated at 25° C. Daily observation for color change was performed during the first seven days. The tubes were mixed periodically to ensure that the OptiMSM was well equilibrated at all times. A positive and negative control was ascertained.
# Bacillus coagulans = experiment: Growth in simulated gastric acid supplemented with MSM; type: cell-based
# [2] = system: Lactobacillus acidophilus milk; experiment: as above; conditions: for Log Growth of L. acidophilus in milk average / Log Growth of L. acidophilus in milk in duplicate: simulated gastric acid
# E. coli = experiment: Log growth in Müller-Hinton media with or without NaCl; type: cell-based, Escherichia coli
# Method: Standard Müller-Hinton media was compared to Müller-Hinton media supplemented with NaCl to the same level as the saline-based media of Example 4. […] After inoculation of each MSM-containing media type with 1.9×10^7 cfu/mL of E. coli, the cultures were incubated at 35° C. for seven days. Aliquots of each culture were taken at 24 and 48 hours, as well as 7 days.
# Lactobacillus rhamnosus = experiment: Growth in MRS broth fortified with MSM; type: cell-based; conditions: for Growth: 0.04% MSM in MRS broth, 0-72 hours
# Method: Each organism (Lactobacillus rhamnosus, Lactobacillus acidophilus, and Bifidobacterium bifidum) was grown in MRS bacterial growth medium (broth) and plated on MRS agar at different time intervals. Results are expressed in colony forming units per milliliter (cfu/mL).
# The 0.1% and 0.04% test concentrations were prepared by making a 1:10 dilution of the 1% and 0.4% test solutions. Once each set of test media was plated for sterility, they were inoculated at a level of 100 μl of inoculum per 100 g or mLs of test broth (1:1000 inoculum dilutions) with each respective microorganism. All bacterial organisms were incubated at 35° C.+/−2° C. for the duration of the study.
# All samples were plated on MRS agar at time 0, 12, 36, 48, 60 and 72 hours (+/−45 minutes). All preparations and plating were conducted at room temperature. All plating events were incubated at 35° C.+/−2° C. for at least 2 days or 3 days for Bifidobacterium. Test samples were plated in triplicate at each test date and the averages are reported.
# [3] = system: Lactobacillus acidophilus ATCC #4356; experiment: Growth and recovery in simulated intestinal tract environment
# Method: The pH of the simulated intestinal fluid was 6.8. The microorganisms analyzed included Lactobacillus acidophilus ATCC #4356:
# For the Lactobacillus acidophilus, bottled milk was used as the product. One milliliter of a 9 log solution of organism was placed into a 99 mL of bottled milk and mixed by hand shaking. […] The gastric acid was pre-warmed to 35° C. and kept at 35° C. for the duration of the 20 minutes. At the end of the 20 minute period, 10 mL of the simulated gastric acid, Lactobacillus acidophilus and milk mixture was placed into 90 mL of simulated intestinal fluid. The simulated intestinal fluid was pre-warmed to 35° C. and kept at 35° C. during the duration of the study.
# [4] = system: normal flora found in the milks; experiment: Standard plate counts of non-probiotic microorganisms in Acidophilus milks; type: cell-based
substance,measurement,setting,value
Methylsulfonylmethane [MSM],color change of the broth,"[1]; 5-7% MSM, Day one",color change of the broth to yellow
same,color change of the broth,"[1]; 8% MSM, Day one, Day three",slight clearing of color; also recorded: turning to the typical yellow color
same,color change of the broth,"[1]; 9% MSM, Day 7",turning to a yellow color
same,color change of the broth,"[1]; 10%-16% MSM, Day 7, 14, 30",No color change; also recorded: no signs of change
same,"organism recovery, streaked on MacConkey agar","[1]; concentration tubes 10%-16% MSM, 72 hour incubation",No organisms were observed
same,Log Growth of Bacillus coagulans average,"Bacillus coagulans; 5% MSM, 0 hours",0.26 logs
same,Log Growth of Bacillus coagulans average,"Bacillus coagulans; 5% MSM, 3 hours",0 logs
same,Log Growth of Bacillus coagulans in duplicate,"Bacillus coagulans; 5% MSM, 3 hours",0 logs
same,Log Growth of Bacillus coagulans average,"Bacillus coagulans; 5% MSM, 6 hours",0 logs
same,Log Growth of Bacillus coagulans in duplicate,"Bacillus coagulans; 5% MSM, 6 hours",0 logs
same,Log Growth of Bacillus coagulans average,"Bacillus coagulans; 5% MSM, 9 hours",0 logs
same,Log Growth of Bacillus coagulans in duplicate,"Bacillus coagulans; 5% MSM, 9 hours",0 logs
same,Log Growth of Bacillus coagulans average,"Bacillus coagulans; 5% MSM, 12 hours",0 logs
same,Log Growth of Bacillus coagulans in duplicate,"Bacillus coagulans; 5% MSM, 12 hours",0 logs
same,Log Growth of Bacillus coagulans average,"Bacillus coagulans; 5% MSM, 15 hours",0.26 logs
same,Log Growth of Bacillus coagulans average,"Bacillus coagulans; 5% MSM, 24 hours",0 logs
same,Log Growth of Bacillus coagulans in duplicate,"Bacillus coagulans; 5% MSM, 24 hours",0 logs
same,Log Growth of Bacillus coagulans average,"Bacillus coagulans; 5% MSM, 48 hours",0 logs
same,Log Growth of Bacillus coagulans in duplicate,"Bacillus coagulans; 5% MSM, 48 hours",0 logs
same,Log Growth of Bacillus coagulans in duplicate,"Bacillus coagulans; […] MSM, 0 hours",0 logs
same,Log Growth of Bacillus coagulans in duplicate,"Bacillus coagulans; […] MSM, 3 hours",0 logs
same,Log Growth of Bacillus coagulans average,"Bacillus coagulans; […] MSM, 9 hours",0 logs
same,Log Growth of Bacillus coagulans in duplicate,"Bacillus coagulans; […] MSM, 9 hours",0 logs
same,Log Growth of Bacillus coagulans in duplicate,"Bacillus coagulans; […] MSM, 12 hours",0 logs
same,Log Growth of Bacillus coagulans average,"Bacillus coagulans; […] MSM, 15 hours",0 logs
same,Log Growth of Bacillus coagulans in duplicate,"Bacillus coagulans; […] MSM, 15 hours",0 logs
same,Log Growth of Bacillus coagulans average,"Bacillus coagulans; […] MSM, 24 hours",0 logs
same,Log Growth of Bacillus coagulans in duplicate,"Bacillus coagulans; […] MSM, 24 hours",0 logs
same,Log Growth of Bacillus coagulans average,"Bacillus coagulans; […] MSM, 48 hours",0 logs
same,Log Growth of Bacillus coagulans in duplicate,"Bacillus coagulans; […] MSM, 48 hours",0 logs
same,"initial recovery, average",Bacillus coagulans; […] and 5.0% MSM,0.26 logs
same,Log Growth of L. acidophilus in milk average,"[2]; 5% MSM, 0 hours",0.41 logs
same,Log Growth of L. acidophilus in milk average,"[2]; 5% MSM, 3 hours",0.41 logs
same,Log Growth of L. acidophilus in milk average,"[2]; 5% MSM, 6 hours",0.91 logs
same,Log Growth of L. acidophilus in milk in duplicate,"[2]; 5% MSM, 6 hours",0.82 logs and 1 logs
same,Log Growth of L. acidophilus in milk average,"[2]; 5% MSM, 9 hours",0.52 logs
same,Log Growth of L. acidophilus in milk in duplicate,"[2]; 5% MSM, 9 hours",0.52 logs
same,Log Growth of L. acidophilus in milk average,"[2]; 5% MSM, 12 hours",1.10 logs
same,Log Growth of L. acidophilus in milk average,"[2]; 5% MSM, 15 hours",1.43 logs
same,Log Growth of L. acidophilus in milk in duplicate,"[2]; 5% MSM, 15 hours",1.43 logs
same,Log Growth of L. acidophilus in milk average,"[2]; 5% MSM, 24 hours",1.66 logs
same,Log Growth of L. acidophilus in milk in duplicate,"[2]; 5% MSM, 24 hours",1.67 logs and 1.64 logs
same,Log Growth of L. acidophilus in milk average,"[2]; 5% MSM, 48 hours",1.33 logs
same,Log Growth of L. acidophilus in milk in duplicate,"[2]; 5% MSM, 48 hours",1.22 logs and 1.43 logs
same,decrease in growth,"[2]; 5.0% MSM, Hour 48",0.33 logs
same,increase in growth,"[2]; 5.0% MSM, at 24 hours",0.23 logs
same,Log Growth of L. acidophilus in milk average,"[2]; […] MSM, 0 hours",0 logs
same,Log Growth of L. acidophilus in milk in duplicate,"[2]; […] MSM, 0 hours",0 logs
same,Log Growth of L. acidophilus in milk average,"[2]; […] MSM, 9 hours",0.41 logs
same,decrease in growth,"[2]; […] MSM, Hour 48",0.38 logs
same,decrease in growth,"[2]; […] MSM, at 24 hours",0.11 logs
same,increase in growth,"[2]; printed […] MSM, at 24 hours",0.30 logs
same,log reduction from the initial inoculum,"E. coli; 24 hours, all media, MSM greater than 13%",approximately 1 log
same,reduced E. coli growth by,"E. coli; 48 hours, MSM greater than 13%",1-2 logs
same,log reduction in E. coli,"E. coli; 7 days, FMHS, 12% MSM",3 log
same,Growth,Lactobacillus rhamnosus; 0 hours after inoculation,1.7 × 10^6 cfu/mL
same,Growth,Lactobacillus rhamnosus; 12 hours after inoculation,2.1 × 10^7 cfu/mL
same,Growth,Lactobacillus rhamnosus; 24 hours after inoculation,1.5 × 10^9 cfu/mL
same,Growth,Lactobacillus rhamnosus; 36 hours after inoculation,1.8 × 10^9 cfu/mL
same,Growth,Lactobacillus rhamnosus; 48 hours after inoculation,2.1 × 10^9 cfu/mL
same,Growth,Lactobacillus rhamnosus; 60 hours after inoculation,2.6 × 10^9 cfu/mL
same,higher than 0% control,"Lactobacillus rhamnosus; first 12 hours, 0.2% MSM",41%
same,higher than 0% control,"Lactobacillus rhamnosus; first 12 hours, 1% MSM",47%
same,recovered more than the 0% control,"Lactobacillus rhamnosus; first 12 hours, all MSM samples",at least 12%
same,Log Growth of Lactobacillus acidophilus,"[3]; 5.0% MSM, 20 min Gastric",<1.00 logs
same,Log Growth of Lactobacillus acidophilus,"[3]; 5.0% MSM, Hour 3, simulated intestinal fluid",1.62 logs
same,Log Growth of Lactobacillus acidophilus,"[3]; 5.0% MSM, Hour 8, simulated intestinal fluid",2.33 logs
same,Log Growth of Lactobacillus acidophilus,"[3]; 5.0% MSM, Hour 24, simulated intestinal fluid",6.39 logs
same,Log Growth of Lactobacillus acidophilus,"[3]; 5.0% MSM, Hour 30, simulated intestinal fluid",6.63 logs
same,Log Growth of Lactobacillus acidophilus,"[3]; 5.0% MSM, Hour 36, simulated intestinal fluid",8.65 logs
same,Log Growth of Lactobacillus acidophilus,"[3]; 5.0% MSM, Hour 48, simulated intestinal fluid",10.17 logs
same,Log Growth of Lactobacillus acidophilus,"[3]; 5.0% MSM, Hour 54, simulated intestinal fluid",13.33 logs
same,Log Growth of Lactobacillus acidophilus,"[3]; 5.0% MSM, Hour 60, simulated intestinal fluid",12.76 logs
same,Log Growth of Lactobacillus acidophilus,"[3]; 5.0% MSM, Hour 72, simulated intestinal fluid",12.78 logs
same,Log Growth of Lactobacillus acidophilus,"[3]; 5.0% MSM, Starting Inoculum",7.02 logs
same,log growth,"[3]; 5.0% MSM, hour 36",8.65 logs
same,increase in growth,"[3]; 5.0% MSM, period after hour 48",3.16 logs
same,Log Growth of Lactobacillus acidophilus,"[3]; […] MSM, 20 min Gastric",<1.00 logs
same,Log Growth of Lactobacillus acidophilus,"[3]; […] MSM, Starting Inoculum",6.86 logs
same,increase in growth,"[3]; […] MSM, hour 36 to 48",3.65 logs
same,growth of normal flora (standard plate counts),"[4]; 5.0% MSM, throughout the study",did not allow any significant growth
same,Growth of non-probiotic microorganisms in Acidophilus Milk,"[4]; A/B milk […] MSM, Day 0",370 cfu per mL
same,Growth of non-probiotic microorganisms in Acidophilus Milk,"[4]; A/B milk […] MSM, Day 3",480 cfu per mL
same,Growth of non-probiotic microorganisms in Acidophilus Milk,"[4]; A/B milk […] MSM, Day 7",570 cfu per mL
same,Growth of non-probiotic microorganisms in Acidophilus Milk,"[4]; A/B milk […] MSM, Day 14",1460 cfu per mL
same,Growth of non-probiotic microorganisms in Acidophilus Milk,"[4]; A/B milk […] MSM, Day 21",3500 cfu per mL
same,Growth of non-probiotic microorganisms in Acidophilus Milk,"[4]; A/B milk […] MSM, Day 28",110000 cfu per mL
same,Growth of non-probiotic microorganisms in Acidophilus Milk,"[4]; Acidophilus milk 0.50% MSM, Day 0, duplicates",20 cfu per mL and 30 cfu per mL
same,Growth of non-probiotic microorganisms in Acidophilus Milk,"[4]; Acidophilus milk 0.50% MSM, Day 3, duplicates",10 cfu per mL
same,Growth of non-probiotic microorganisms in Acidophilus Milk,"[4]; Acidophilus milk 0.50% MSM, Day 7, duplicates",10 cfu per mL
same,Growth of non-probiotic microorganisms in Acidophilus Milk,"[4]; Acidophilus milk 0.50% MSM, Day 14, duplicates",20 cfu per mL
same,Growth of non-probiotic microorganisms in Acidophilus Milk,"[4]; Acidophilus milk 0.50% MSM, Day 21, duplicates",20 cfu per mL and 40 cfu per mL
same,Growth of non-probiotic microorganisms in Acidophilus Milk,"[4]; Acidophilus milk 5% MSM, Day 0, duplicates",10 cfu per mL and 20 cfu per mL
same,Growth of non-probiotic microorganisms in Acidophilus Milk,"[4]; Acidophilus milk 5% MSM, Day 3, duplicates",10 cfu per mL
same,Growth of non-probiotic microorganisms in Acidophilus Milk,"[4]; Acidophilus milk 5% MSM, Day 7, duplicates",10 cfu per mL and 20 cfu per mL
same,Growth of non-probiotic microorganisms in Acidophilus Milk,"[4]; Acidophilus milk 5% MSM, Day 14, duplicates",20 cfu per mL and 10 cfu per mL
same,Growth of non-probiotic microorganisms in Acidophilus Milk,"[4]; Acidophilus milk 5% MSM, Day 21, duplicates",20 cfu per mL and 10 cfu per mL
same,Growth of non-probiotic microorganisms in Acidophilus Milk,"[4]; Acidophilus milk 5% MSM, Day 28, duplicates",10 cfu per mL
same,Growth of non-probiotic microorganisms in Acidophilus Milk,"[4]; Acidophilus milk […] MSM, Day 0, duplicates",10 cfu per mL
same,Growth of non-probiotic microorganisms in Acidophilus Milk,"[4]; Acidophilus milk […] MSM, Day 14, duplicates",<10 cfu per mL
